Experimental data as given in patent US20150299188A1, “HETEROCYCLIC COMPOUND” (priority 2012, published 2015).

Tested on: FLAP (5-lipoxygenase activating protein)
Assay: In vitro binding test: displacement of [3H]-7-chloro-3-(5-((3-fluoropyridin-2-yl)methoxy)-2-methylphenyl)-3,4-dihydroquinazolin-2(1H)-one from Sf9 microsome fractions
Set-up: species or system human and mouse
Details: Sf9 microsome fractions expressing FLAP; 100% = radioligand binding with 10 μM sodium 3-(3-(tert-butylsulfanyl)-1-(4-chlorobenzyl)-5-isopropyl-1H-indol-2-yl)-2,2-dimethylpropanoate, 0% = DMSO; test compound concentration not given
In short: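 Sf9 microsomes expressing human or mouse FLAP (2 μg/mL) preincubated with compound 10 min at room temperature, then 120 nM tritiated quinazolinone ligand added for 60 min; buffer 100 mM Tris-HCl pH 7.5 with NaCl, EDTA, DTT, glycerol, Tween20. Bound ligand filtered and counted by scintillation; 10 μM indole propanoate defines 100% inhibition, DMSO 0%.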

Structure (SMILES) | inhibitory rate (%)
Cc1cnn(-c2cc3c(c(C4CC4)n2)CN(c2cc4c(cc2C)CCC(c2ncccc2F)O4)C(=O)N3)c1 (stereo not drawn) [Example 133, 5-cyclopropyl-3-(2-(3-fluoropyridin-2-yl)-6-methyl-3,4-dihydro-2H-chromen-7-yl)-7-(4-methyl-1H-pyrazol-1-yl)-3,4-dihydropyrido[4,3-d]pyrimidin-2(1H)-one] | 100%
Cc1cc2c(cc1N1Cc3c(cc(-n4cc(C(F)(F)F)cn4)nc3C3CC3)NC1=O)OC(c1ncccc1F)CC2 (stereo not drawn) [Example 154, 5-cyclopropyl-3-(2-(3-fluoropyridin-2-yl)-6-methyl-3,4-dihydro-2H-chromen-7-yl)-7-(4-(trifluoromethyl)-1H-pyrazol-1-yl)-3,4-dihydropyrido[4,3-d]pyrimidin-2(1H)-one] | 100%
Cc1cc2c(cc1N1Cc3ccc(CO)cc3NC1=O)OC(c1ncccc1F)CC2 (stereo not drawn) [Example 185, 3-(2-(3-fluoropyridin-2-yl)-6-methyl-3,4-dihydro-2H-chromen-7-yl)-7-(hydroxymethyl)-3,4-dihydroquinazolin-2(1H)-one] | 98%
O=C1Nc2c(ccnc2Cl)CN1c1cc2c(cc1Cl)CCC(c1ncccc1F)O2 (stereo not drawn) [Example 54, 8-chloro-3-(6-chloro-2-(3-fluoropyridin-2-yl)-3,4-dihydro-2H-chromen-7-yl)-3,4-dihydropyrido[3,4-d]pyrimidin-2(1H)-one] | 115%
Cc1ccc(OCc2ncccc2F)cc1N1Cc2c(Cl)cccc2N(CC(N)=O)C1=O [Example 286, 2-(5-chloro-3-(5-((3-fluoropyridin-2-yl)methoxy)-2-methylphenyl)-2-oxo-3,4-dihydroquinazolin-1(2H)-yl)acetamide] | 112%
Cc1cc2c(cc1N1Cc3ccc(C(=O)N4CCOCC4)cc3NC1=O)OC(c1ncccc1F)CC2 (stereo not drawn) [Example 183, 3-(2-(3-fluoropyridin-2-yl)-6-methyl-3,4-dihydro-2H-chromen-7-yl)-7-(morpholin-4-ylcarbonyl)-3,4-dihydroquinazolin-2(1H)-one] | 96%
COC(=O)/C=C/c1cc2c(c(C3CC3)n1)CN(c1cc3c(cc1C)CCC(c1ncccc1F)O3)C(=O)N2 (stereo not drawn) [Example 89, methyl (2E)-3-(5-cyclopropyl-3-(2-(3-fluoropyridin-2-yl)-6-methyl-3,4-dihydro-2H-chromen-7-yl)-2-oxo-1,2,3,4-tetrahydropyrido[4,3-d]pyrimidin-7-yl)acrylate] | 98%
Cc1ccc(OCc2ncccc2Cl)cc1N1Cc2nn(C)cc2NC1=O [Example 265, 6-(5-((3-chloropyridin-2-yl)methoxy)-2-methylphenyl)-2-methyl-2,4,6,7-tetrahydro-5H-pyrazolo[4,3-d]pyrimidin-5-one] | 82%
Cc1cc2c(cc1N1Cc3c(Cl)cnc(-c4cnn(C)c4)c3NC1=O)OC(c1ncccc1F)CC2 (stereo not drawn) [Example 148, 5-chloro-3-(2-(3-fluoropyridin-2-yl)-6-methyl-3,4-dihydro-2H-chromen-7-yl)-8-(1-methyl-1H-pyrazol-4-yl)-3,4-dihydropyrido[3,4-d]pyrimidin-2(1H)-one] | 97%
CC(C)(O)c1cc2c(c(C3CC3)n1)CN(c1cc3c(cc1Cl)CCC(c1ncccc1F)O3)C(=O)N2 (stereo not drawn) [Example 75, 3-(6-chloro-2-(3-fluoropyridin-2-yl)-3,4-dihydro-2H-chromen-7-yl)-5-cyclopropyl-7-(2-hydroxypropan-2-yl)-3,4-dihydropyrido[4,3-d]pyrimidin-2(1H)-one] | 103%
O=C1Nc2ccnc(Cl)c2CN1c1cc2c(cc1C(F)(F)F)CCC(c1ncccc1F)O2 (stereo not drawn) [Example 35, 5-chloro-3-(2-(3-fluoropyridin-2-yl)-6-(trifluoromethyl)-3,4-dihydro-2H-chromen-7-yl)-3,4-dihydropyrido[4,3-d]pyrimidin-2(1H)-one] | 93%
O=C1Nc2cc(OC(F)F)nc(C3CC3)c2CN1c1cc2c(cc1Cl)CC[C@H](c1ncccc1F)O2 [Example 19, 3-((2R)-6-chloro-2-(3-fluoropyridin-2-yl)-3,4-dihydro-2H-chromen-7-yl)-5-cyclopropyl-7-(difluoromethoxy)-3,4-dihydropyrido[4,3-d]pyrimidin-2(1H)-one] | 102%
Cc1ccc(OCc2ncccc2F)cc1N1Cc2nn(CC3CC3)cc2NC1=O [Example 276, 2-(cyclopropylmethyl)-6-(5-((3-fluoropyridin-2-yl)methoxy)-2-methylphenyl)-2,4,6,7-tetrahydro-5H-pyrazolo[4,3-d]pyrimidin-5-one] | 101%
Cc1cc2c(cc1N1Cc3c(F)cncc3NC1=O)OC(c1ncccc1F)CC2 (stereo not drawn) [Example 88, 5-fluoro-3-(2-(3-fluoropyridin-2-yl)-6-methyl-3,4-dihydro-2H-chromen-7-yl)-3,4-dihydropyrido[3,4-d]pyrimidin-2(1H)-one] | 96%
Cc1cc2c(cc1N1Cc3cnc(Cl)cc3NC1=O)OC(c1ncccc1F)CC2 (stereo not drawn) [Example 47, 7-chloro-3-(2-(3-fluoropyridin-2-yl)-6-methyl-3,4-dihydro-2H-chromen-7-yl)-3,4-dihydropyrido[4,3-d]pyrimidin-2(1H)-one] | 114%
Cc1cc2c(cc1N1Cc3c(ccnc3Cl)NC1=O)OC(c1ccccn1)CC2 (stereo not drawn) [Example 51, 5-chloro-3-(6-methyl-2-(pyridin-2-yl)-3,4-dihydro-2H-chromen-7-yl)-3,4-dihydropyrido[4,3-d]pyrimidin-2(1H)-one] | 105%
CCc1ccc(OCc2c(F)cccc2F)cc1N1Cc2ccc(C(=O)OC)cc2NC1=O [Example 177, methyl 3-(5-((2,6-difluorobenzyl)oxy)-2-ethylphenyl)-2-oxo-1,2,3,4-tetrahydroquinazoline-7-carboxylate] | 84%
COc1cccc2[nH]c(=O)n(-c3cc(OCc4ncccc4F)ccc3C)c(=O)c12 [Example 365, 3-(5-((3-fluoropyridin-2-yl)methoxy)-2-methylphenyl)-5-methoxyquinazoline-2,4(1H,3H)-dione] | 94%
Cc1ccc(OCc2c(F)cccc2F)cc1N1Cc2ccc(C(=O)NCCO)cc2NC1=O [Example 197, 3-(5-((2,6-difluorobenzyl)oxy)-2-methylphenyl)-N-(2-hydroxyethyl)-2-oxo-1,2,3,4-tetrahydroquinazoline-7-carboxamide] | 101%
O=C1Nc2cc(C3CC3)nc(C3CC3)c2CN1c1ccc2c(c1)OC(c1ncccc1F)CC2 (stereo not drawn) [Example 90, 5,7-dicyclopropyl-3-(2-(3-fluoropyridin-2-yl)-3,4-dihydro-2H-chromen-7-yl)-3,4-dihydropyrido[4,3-d]pyrimidin-2(1H)-one] | 118%
Cc1cc2c(cc1N1Cc3c(cc(CCC(=O)O)nc3C3CC3)NC1=O)OC(c1ncccc1F)CC2 (stereo not drawn) [Example 94, 3-(5-cyclopropyl-3-(2-(3-fluoropyridin-2-yl)-6-methyl-3,4-dihydro-2H-chromen-7-yl)-2-oxo-1,2,3,4-tetrahydropyrido[4,3-d]pyrimidin-7-yl)propanoic acid] | 104%
N#Cc1ccc(OCc2ncccc2F)cc1N1Cc2ccccc2NC1=O [Example 224, 4-((3-fluoropyridin-2-yl)methoxy)-2-(2-oxo-1,4-dihydroquinazolin-3(2H)-yl)benzonitrile] | 87%
Cc1cc2c(cc1N1Cc3c(cncc3C3CC3)NC1=O)OC(c1ncccc1F)CC2 (stereo not drawn) [Example 26, 5-cyclopropyl-3-(2-(3-fluoropyridin-2-yl)-6-methyl-3,4-dihydro-2H-chromen-7-yl)-3,4-dihydropyrido[3,4-d]pyrimidin-2(1H)-one] | 101%
Cc1ccc(OCc2ncccc2F)cc1N1Cc2c(F)cccc2NC1=O [Example 281, 5-fluoro-3-(5-((3-fluoropyridin-2-yl)methoxy)-2-methylphenyl)-3,4-dihydroquinazolin-2(1H)-one] | 107%
Cc1ccc(OCc2ncccc2F)cc1-n1c(=O)[nH]c2ncccc2c1=O [Example 343, 3-(5-((3-fluoropyridin-2-yl)methoxy)-2-methylphenyl)pyrido[2,3-d]pyrimidine-2,4(1H,3H)-dione] | 101%
O=C1Nc2cc(OC(F)F)nc(C3CC3)c2CN1c1cc2c(cc1Cl)CCC(c1ncccc1F)O2 (stereo not drawn) [Example 18, 3-(6-chloro-2-(3-fluoropyridin-2-yl)-3,4-dihydro-2H-chromen-7-yl)-5-cyclopropyl-7-(difluoromethoxy)-3,4-dihydropyrido[4,3-d]pyrimidin-2(1H)-one] | 88%
Cc1cc2c(cc1N1Cc3c(cc(N4CCOC4=O)nc3C3CC3)NC1=O)OC(c1ncccc1F)CC2 (stereo not drawn) [Example 138, 5-cyclopropyl-3-(2-(3-fluoropyridin-2-yl)-6-methyl-3,4-dihydro-2H-chromen-7-yl)-7-(2-oxo-1,3-oxazolidin-3-yl)-3,4-dihydropyrido[4,3-d]pyrimidin-2(1H)-one] | 109%
Cc1cc2c(cc1N1Cc3c(ccnc3C(C)C)NC1=O)OC(c1ncccc1F)CC2 (stereo not drawn) [Example 67, 3-(2-(3-fluoropyridin-2-yl)-6-methyl-3,4-dihydro-2H-chromen-7-yl)-5-isopropyl-3,4-dihydropyrido[4,3-d]pyrimidin-2(1H)-one] | 104%
Cc1ccc(OCc2ncccc2F)cc1N1Cc2cc(Cl)ccc2NC1=O [Example 243, 6-chloro-3-(5-((3-fluoropyridin-2-yl)methoxy)-2-methylphenyl)-3,4-dihydroquinazolin-2(1H)-one] | 100%
O=C1NCCN1c1cc2c(c(C3CC3)n1)CN(c1cc3c(cc1Cl)CCC(c1ncccc1F)O3)C(=O)N2 (stereo not drawn) [Example 131, 3-(6-chloro-2-(3-fluoropyridin-2-yl)-3,4-dihydro-2H-chromen-7-yl)-5-cyclopropyl-7-(2-oxoimidazolidin-1-yl)-3,4-dihydropyrido[4,3-d]pyrimidin-2(1H)-one] | 101%
